Test results: PMC7311461, “Cyclophilin D binds to the acidic C-terminus region of α-Synuclein and affects its aggregation characteristics” (Scientific Reports, 2020)
Entries after “also recorded” stand apart in the source; their conditions may differ.

How the values were obtained:
αSyn [1] = conditions: cited from earlier work
Source text: (§1) Proteins currently known to dissociate amyloid fibrils do so in either an ATP-dependent or –independent manner. Examples of the former include Hsp70, whereas the latter mode can be found in Cyclophilin 40 (Cyp40)[14],[15]. […] The effects of Cyp40 on the tau and αSyn fibrils were attributed to its peptidyl-prolyl isomerase activity. […] An emerging picture is that agents that prevent aggregation can also dissemble amyloid fibrils. […] Human Cyp40 is a multidomain protein consisting of the catalytic isomerase domain followed by four tetratricopeptide repeats. Through mutagenesis, the isomerase domain was identified as being responsible for this disaggregating activity[15] as is also shown here for CypD. CypD also interacts directly with the Alz ...

amyloid-β (Aβ) = conditions: cited from earlier work
Source text: as §1

[2] = system: human insulin and human lysozyme; conditions: cited from earlier work
Source text: An emerging picture is that agents that prevent aggregation can also dissemble amyloid fibrils.

αSyn [3] = conditions: cited from earlier work; remark: listed apart in the source
Source text: While the aggregation processes are well studied the same is not true for disaggregation. […] EGCG binding to the C-terminus stabilises the αSyn monomeric state and shifts the monomer-fibril equilibrium towards the less aggregated forms. […] Human Cyp40 is a multidomain protein consisting of the catalytic isomerase domain followed by four tetratricopeptide repeats. Through mutagenesis, the isomerase domain was identified as being responsible for this disaggregating activity[15] as is also shown here for CypD. CypD also interacts directly with the Alz ...

tau = conditions: cited from earlier work
Source text: Proteins currently known to dissociate amyloid fibrils do so in either an ATP-dependent or –independent manner. Examples of the former include Hsp70, whereas the latter mode can be found in Cyclophilin 40 (Cyp40)[14],[15]. […] The effects of Cyp40 on the tau and αSyn fibrils were attributed to its peptidyl-prolyl isomerase activity.

CypD [4] = target: T1, CypD (Homo sapiens, UniProt P30405); test: Isothermal titration calorimetry, binding to CypD wild-type; conditions: 10°C, 20 mM phosphate, 20 mM NaCl, pH 6.5
T1 construct: His tag (TEV-cleavable, pETM11 vector) (cleaved yes); made in house; host or cells: E. coli BL21 (DE3)
T1 sequence (P30405 43-207): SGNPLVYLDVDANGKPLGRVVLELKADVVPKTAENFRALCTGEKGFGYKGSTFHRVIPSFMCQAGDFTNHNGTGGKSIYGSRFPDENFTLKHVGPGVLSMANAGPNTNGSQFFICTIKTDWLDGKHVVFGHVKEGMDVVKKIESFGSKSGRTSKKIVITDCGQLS
Description: All ITC experiments were carried out at 10°C on an ITC200 Microcalorimeter (GE Healthcare). The buffer used was 20 mM phosphate, 20 mM NaCl at pH 6.5. Each experiment consisted of an initial injection of 0.5 µL, followed by fifteen 2.39 µL injections before a final injection of 1.89 µL. Control experiments were performed whereby each compound was titrated into buffer and buffer titrated into CypD. In both cases no heat exchange was detected, confirming that there was appropriate match of buffer conditions with no indication of dilution effects. The titration experiments were performed in duplicates, with 50-100 µM CypD in the cell and 500-2000 µM peptides in the syringe. For some of the titrations, data from two runs were concatenated to achieve a saturating isotherm. All data was analysed using the Origin®7 (OriginLab, Northampton, MA) software programme.

CypD [5] = target: T1, CypD; test: Isomerisation substrate test by NMR; type: biochemical
Description: (§2) NMR spectra were acquired on Bruker Avance III 800 MHz spectrometer equipped with [^1H, ^15N, ^13C]-cryoprobes. 1D and 2D spectra of αSyn peptide were performed using 1 mM peptide dissolved in 20 mM phosphate, 20 mM NaCl pH 6.5 at 298 K or 283 K. Resonance assignments of the proton spectra of αSyn peptide were obtained using ^1H-^1H 2D TOCSY (mixing time 60 ms) and NOESY spectra (mixing time 350 ms). […] The same buffer was used for obtaining the ^1H-^15N spectra of ^15N-labelled αSyn at 298 K. Experiments using ^15N-labelled αSyn fibrils were performed at 288 K. ^2H/^15N-labelled CypD was used to make the complex with intact αSyn in order to achieve the optimal conditions to observe shift perturbations, taking into account the size of the complex (~32kD). Backbone ^1H and ^15N resonances of CypD and αSyn were assigned using standard triple resonance to those assigned by ^13C, ^15N, ^1H-triple resonance HNCA, HN(CO)CA, HNCO, HN(CA)CO, CBCA(CO)NH, and CBCANH experiments.

CypD [6] = target: T1, CypD; test: 1H-15N HSQC NMR of 15N-CypD, binding site identification; conditions: 15N-CypD HSQC, 20-fold excess peptide; 20 mM phosphate, 20 mM NaCl, pH 6.5
Description: NMR spectra were acquired on Bruker Avance III 800 MHz spectrometer equipped with [^1H, ^15N, ^13C]-cryoprobes. […] The same buffer was used for obtaining the ^1H-^15N spectra of ^15N-labelled αSyn at 298 K. Experiments using ^15N-labelled αSyn fibrils were performed at 288 K. ^2H/^15N-labelled CypD was used to make the complex with intact αSyn in order to achieve the optimal conditions to observe shift perturbations, taking into account the size of the complex (~32kD). Backbone ^1H and ^15N resonances of CypD and αSyn were assigned using standard triple resonance to those assigned by ^13C, ^15N, ^1H-triple resonance HNCA, HN(CO)CA, HNCO, HN(CA)CO, CBCA(CO)NH, and CBCANH experiments.
In the analyses of the chemical shift perturbation, the chemical-shift difference was expressed as: Δδ = {(ΔH)^2 + (0.15ΔN)^2}^1/2. Values of Δδ greater than 0.07 were considered significant.

[7] = system: αSyn effects on mitochondria / MPTP; conditions: cited from earlier work
Source text: Cyclophilin D (CypD) is a mitochondrial peptidyl-prolyl isomerase that has been implicated to be involved in the mechanisms of many diseases, although it is best known as a regulator for the opening of the mitochondria permeability transition pore (MPTP). […] Co-immunoprecipitation experiments ...

[8] = system: αSynC peptide (cis-trans isomerisation by CypD); test: NMR detection of αSynC cis-trans isomerisation (1D line-broadening, 2D NOESY exchange cross-peaks); type: biochemical; conditions: αSynC 1 mM, CypD 50uM, CsA 100uM, 283 K
Description: as §2

## C=CC[C@@H]1/C=C(\C)C[C@H](C)C[C@H](OC)[C@H]2O[C@@](O)(C(=O)C(=O)N3CCCC[C@H]3C(=O)O[C@H](/C(C)=C/[C@@H]3CC[C@@H](O)[C@H](OC)C3)[C@H](C)[C@@H](O)CC1=O)[C@H](C)C[C@@H]2OC [FK506]
αSyn [1]
  αSyn aggregation (FKBP inhibitor): prevent αSyn aggregation

## CC12CC3CC(C)(C1)CC(N)(C3)C2 [memantine]
amyloid-β (Aβ)
  Aβ aggregation and preformed Aβ fibrils: inhibits Αβ aggregation; also recorded: disassembles preformed Aβ fibrils

## CC(CN1c2ccccc2Sc2ccccc21)N(C)C (centres unmarked) [promethazine]
[2]
  aggregation of human insulin and human lysozyme: prevents the aggregation of human insulin and human lysozyme; also recorded: depolymerises preformed fibrils

## Cyclophilin A: Cyclophilin A
αSyn [3]
  binding to αSyn: bind to αSyn, also at the C-terminus as well as to the preNAC sequence

## Cyp40: cytosolic peptidyl prolyl isomerase, co-chaperone to Hsp90
tau
  dissociation of fibrils: dissociate tau
amyloid-β (Aβ); Aβ fibrils
  dissociation of fibrils: not amyloid-β (Aβ) fibrils
αSyn [1]; αSyn fibrils
  dissociation of fibrils: dissociate tau, and αSyn

## FKBP12: peptidyl-prolyl isomerase immunophilin protein belonging to the FKBP family, cytoplasmic
αSyn [1]
  αSyn aggregation: promoted αSyn aggregation
αSyn [3]
  binding to αSyn: shown to bind αSyn

## GVATVAEKTKEQVTN [αSynM, synthetic peptide 51–65 of αSyn, >98% pure]
CypD [4]
  binding to CypD (ITC, in words): too weak to yield a reliable binding isotherm; also recorded: binds much more weakly
CypD [5]
  interaction with CypD / isomerisation substrate: not an isomerisation substrate of CypD
CypD [6]
  binding to CypD by NMR (in words): only slightly shifted from the positions in the free protein with minimal broadening observed for selected peaks; also recorded: very weak binding

## cyclosporine A [CsA]
[7]
  rescue of αSyn effects on mitochondria: can be rescued
[8]
  effect of CsA on exchange cross-peaks (CypD isomerase activity): exchange crosspeaks disappear
[8]; listed as Cyclosporine A
  effect of CsA on exchange cross-peaks (CypD isomerase activity): disappearance of the exchange cross-peaks

## epigallocatechin-3-gallate [EGCG]
αSyn [1]
  dissociation of αSyn aggregates: dissociates αSyn aggregates
αSyn [3]
  binding to C-terminus of monomeric αSyn: binds to the C-terminus of monomeric αSyn
